According to patent US20020137929A1, “1 - (3-heterocyclylphenyl) isothiourea, -isourea, -guanidine and -amidine herbicidal agents” (Intellectual Property Department, BASF Aktiengesellschaft, priority 1998, published 2002):

Legend:
[1] = system: SAGPY (Arrowhead (Pygmaea)); experiment: Preemergence weed control under flooded paddy conditions; type: in vivo, Sagittaria pygmaea; details: rated 3-4 weeks after treatment
Method in brief: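 Ratings on a 0-9 visual scale cover stand, vigor, malformation, size, chlorosis and overall appearance relative to a control, taken three to four weeks post-treatment. Application was into flood water over freshly sown silt loam at roughly 0.0313 to 0.500 kg/ha.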

ORYSAT (Rice, Tebonnet) [2] = experiment: Postemergence herbicidal evaluation; type: in vivo, Oryza sativa, (L.) Tebonnet; details: postemergence
Method in brief: (§1)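 Two-week-old seedlings sprayed with compound in 50/50 acetone/water plus 0.5% TWEEN 20, at about 0.0156 to 0.500 kg/ha, nozzle at 40 psi. Kept in greenhouse; rated visually 4-5 weeks after treatment on a 0-9 scale versus control, repeat tests averaged.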

ORYSAT (Rice, Tebonnet) [3] = experiment: Preemergence herbicidal evaluation; type: in vivo, Oryza sativa, (L.) Tebonnet; details: rated 4-5 weeks after treatment
Method in brief: (§2)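 Scores (0–9) reflect visual comparison with control plants for stand, vigor, malformation, size and chlorosis. Compound was applied to the soil after sowing, before emergence, as an aqueous acetone spray (about 0.0156–0.500 kg/ha), and cups were kept in a greenhouse for 4–5 weeks.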

CYPIR (Rice Flatsedge) = experiment: Postemergence weed control under flooded paddy conditions; type: in vivo, Cyperus iria; details: postemergence weeds
Method in brief: (§3)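 With weeds 3 to 5 cm tall and rice at the 1.5 to 2.5 leaf stage, containers were flooded and water held 1.5 to 3 cm above soil. Compounds in 50/50 v/v aqueous/acetone went into the flood water at about 0.0313 to 0.500 kg/ha a.i. Effects were visually rated 0–9 against controls after three to four weeks in the greenhouse.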

[4] = system: GLXMAW (Soybean, Williams); experiment: Postemergence herbicidal evaluation; type: in vivo, Glycine max, (L.) Merr. cv Williams; details: postemergence
Method in brief: as §1

AMBEL (Ragweed, Common) [5] = experiment: Preemergence herbicidal evaluation; type: in vivo, Ambrosia artemisifolia; details: rated 4-5 weeks after treatment
Method in brief: as §2

[6] = system: CHEAL (Lambsquarters, Common); experiment: Preemergence herbicidal evaluation; type: in vivo, Chenopodium album; details: rated 4-5 weeks after treatment
Method in brief: as §2

AMBEL (Ragweed, Common) [7] = experiment: Postemergence herbicidal evaluation; type: in vivo, Ambrosia artemisifolia; details: postemergence
Method in brief: as §1

ABUTH (Velvetleaf) = experiment: Postemergence herbicidal evaluation; type: in vivo, Abutilon theophrasti; details: postemergence
Method in brief: as §1

GALAP (Galium) = experiment: Postemergence herbicidal evaluation; type: in vivo, Galium aparine; details: postemergence
Method in brief: as §1

SETVI (Foxtail, Green) = experiment: Postemergence herbicidal evaluation; type: in vivo, Setaria viridis; details: postemergence
Method in brief: as §1

[8] = system: TRZAWR (Wheat, Winter, cv Riband); experiment: Postemergence herbicidal evaluation; type: in vivo, Triticum aestivum; details: postemergence
Method in brief: as §1

[9] = system: CHEAL (Lambsquarters, Common); experiment: Postemergence herbicidal evaluation; type: in vivo, Chenopodium album; details: postemergence
Method in brief: as §1

[10] = system: ECHORC (Watergrass (Calif.)); experiment: Postemergence weed control under flooded paddy conditions; type: in vivo, Echinochloa oryzoides; details: postemergence weeds
Method in brief: as §3

[11] = Rate 0.0313 kg/ha, rated 3 to 4 weeks after treatment
[12] = Rate 0.0625 kg/ha, rated 3 to 4 weeks after treatment
[13] = Rate 0.1250 kg/ha, rated 3 to 4 weeks after treatment
[14] = Rate 0.2500 kg/ha, rated 3 to 4 weeks after treatment
[15] = rate 0.0313 kg/ha, 3-4 weeks after treatment
[16] = rate 0.0625 kg/ha, 3-4 weeks after treatment
[17] = rate 0.1250 kg/ha, 3-4 weeks after treatment
[18] = rate 0.2500 kg/ha, 3-4 weeks after treatment
[19] = rate 0.5000 kg/ha, 3-4 weeks after treatment

CCOC(=O)CN1C(=O)C(Cc2ccccc2OC(C)C(=O)O)S/C1=N/c1cc(-n2c(=O)cc(C(F)(F)F)n(C)c2=O)c(F)cc1Cl (stereo not shown) [Compound 114, 5-[o-(1-Carboxyethoxy)benzyl]-2-{{2-chloro-5-[3,6-dihydro-3-methyl-2,6-dioxo-4-(trifluoromethyl)-1(2H)-pyrimidinyl]-4-fluorophenyl}imino}-4-oxo-3-thiazolidineacetic acid, 3-ethyl ester]
SAGPY herbicidal effect rating ([1]; 0.0313 kg/ha): 3.5 | SAGPY herbicidal effect rating ([1]; 0.0625 kg/ha): 3.5 | SAGPY herbicidal effect rating ([1]; 0.1250 kg/ha): 3.5 | SAGPY herbicidal effect rating ([1]; 0.2500 kg/ha): 4.5 | herbicidal rating ORYSAT (ORYSAT (Rice, Tebonnet) [2]; rate 0.0158 kg/ha): 1.5 | herbicidal rating ORYSAT (ORYSAT (Rice, Tebonnet) [2]; rate 0.0315 kg/ha): 2.0 | herbicidal rating ORYSAT (ORYSAT (Rice, Tebonnet) [2]; rate 0.0630 kg/ha): 3.0 | Preemergence herbicidal rating ORYSAT (ORYSAT (Rice, Tebonnet) [3]; rate 0.0156 kg/ha): 0.0 | Preemergence herbicidal rating ORYSAT (ORYSAT (Rice, Tebonnet) [3]; rate 0.0313 kg/ha): 0.0 | Preemergence herbicidal rating ORYSAT (ORYSAT (Rice, Tebonnet) [3]; rate 0.0625 kg/ha): 0.0 | Preemergence herbicidal rating ORYSAT (ORYSAT (Rice, Tebonnet) [3]; rate 0.1250 kg/ha): 2.0 | Preemergence herbicidal rating ORYSAT (ORYSAT (Rice, Tebonnet) [3]; rate 0.2500 kg/ha): 2.0 | Herbicidal rating CYPIR (CYPIR (Rice Flatsedge); [11]): 0.0 | Herbicidal rating CYPIR (CYPIR (Rice Flatsedge); [12]): 0.0 | Herbicidal rating CYPIR (CYPIR (Rice Flatsedge); [13]): 4.0 | Herbicidal rating CYPIR (CYPIR (Rice Flatsedge); [14]): 7.0 | herbicidal rating GLXMAW ([4]; rate 0.0158 kg/ha): 6.0 | herbicidal rating GLXMAW ([4]; rate 0.0315 kg/ha): 5.5 | herbicidal rating GLXMAW ([4]; rate 0.0630 kg/ha): 6.5 | Preemergence herbicidal rating AMBEL (AMBEL (Ragweed, Common) [5]; rate 0.0156 kg/ha): 0.0 | Preemergence herbicidal rating AMBEL (AMBEL (Ragweed, Common) [5]; rate 0.0313 kg/ha): 0.0 | Preemergence herbicidal rating AMBEL (AMBEL (Ragweed, Common) [5]; rate 0.0625 kg/ha): 0.0 | Preemergence herbicidal rating AMBEL (AMBEL (Ragweed, Common) [5]; rate 0.1250 kg/ha): 5.0 | Preemergence herbicidal rating AMBEL (AMBEL (Ragweed, Common) [5]; rate 0.2500 kg/ha): 7.0 | Preemergence herbicidal rating CHEAL ([6]; rate 0.0156 kg/ha): 9.0 | Preemergence herbicidal rating CHEAL ([6]; rate 0.0313 kg/ha): 9.0 | Preemergence herbicidal rating CHEAL ([6]; rate 0.0625 kg/ha): 7.0 | Preemergence herbicidal rating CHEAL ([6]; rate 0.1250 kg/ha): 9.0 | Preemergence herbicidal rating CHEAL ([6]; rate 0.2500 kg/ha): 9.0 | herbicidal rating AMBEL (AMBEL (Ragweed, Common) [7]; rate 0.0158 kg/ha): 4.0 | herbicidal rating AMBEL (AMBEL (Ragweed, Common) [7]; rate 0.0315 kg/ha): 9.0 | herbicidal rating AMBEL (AMBEL (Ragweed, Common) [7]; rate 0.0630 kg/ha): 7.0 | herbicidal rating ABUTH (ABUTH (Velvetleaf); rate 0.0158 kg/ha): 9.0 | herbicidal rating ABUTH (ABUTH (Velvetleaf); rate 0.0315 kg/ha): 9.0 | herbicidal rating ABUTH (ABUTH (Velvetleaf); rate 0.0630 kg/ha): 9.0 | herbicidal rating GALAP (GALAP (Galium); rate 0.0158 kg/ha): 1.0 | herbicidal rating GALAP (GALAP (Galium); rate 0.0315 kg/ha): 1.0 | herbicidal rating GALAP (GALAP (Galium); rate 0.0630 kg/ha): 3.0 | herbicidal rating SETVI (SETVI (Foxtail, Green); rate 0.0158 kg/ha): 4.0 | herbicidal rating SETVI (SETVI (Foxtail, Green); rate 0.0315 kg/ha): 3.0 | herbicidal rating SETVI (SETVI (Foxtail, Green); rate 0.0630 kg/ha): 9.0 | herbicidal rating TRZAWR ([8]; rate 0.0158 kg/ha): 2.0 | herbicidal rating TRZAWR ([8]; rate 0.0315 kg/ha): 3.0 | herbicidal rating TRZAWR ([8]; rate 0.0630 kg/ha): 4.0 | herbicidal rating CHEAL ([9]; rate 0.0158 kg/ha): 7.0 | herbicidal rating CHEAL ([9]; rate 0.0315 kg/ha): 6.0 | herbicidal rating CHEAL ([9]; rate 0.0630 kg/ha): 9.0 | Herbicidal rating ECHORC [10, 11]: 0.0 | Herbicidal rating ECHORC [10, 12]: 0.0 | Herbicidal rating ECHORC [10, 13]: 0.0 | Herbicidal rating ECHORC [10, 14]: 0.0

CC1SC(=Nc2cc(N3C(=O)C4=C(CCCC4)C3=O)c(F)cc2Cl)N(C)C1=O (stereo not shown) [Compound 4]
Herbicidal rating SAGPY ([1]; 0.0313 kg/ha): 0.0 | Herbicidal rating SAGPY ([1]; 0.0625 kg/ha): 0.0 | Herbicidal rating SAGPY ([1]; 0.1250 kg/ha): 0.0 | Herbicidal rating SAGPY ([1]; 0.2500 kg/ha): 0.0 | Herbicidal rating SAGPY ([1]; 0.5000 kg/ha): 0.0 | ORYSAT herbicidal rating (ORYSAT (Rice, Tebonnet) [2]; rate 0.0313 kg/ha): 1.0 | ORYSAT herbicidal rating (ORYSAT (Rice, Tebonnet) [2]; rate 0.0625 kg/ha): 1.0 | ORYSAT herbicidal rating (ORYSAT (Rice, Tebonnet) [2]; rate 0.1250 kg/ha): 2.5 | ORYSAT herbicidal rating (ORYSAT (Rice, Tebonnet) [2]; rate 0.2500 kg/ha): 1.5 | ORYSAT herbicidal rating (ORYSAT (Rice, Tebonnet) [2]; rate 0.5000 kg/ha): 3.0 | ORYSAT preemergence herbicidal rating (ORYSAT (Rice, Tebonnet) [3]; rate 0.1250 kg/ha): 0.0 | ORYSAT preemergence herbicidal rating (ORYSAT (Rice, Tebonnet) [3]; rate 0.2500 kg/ha): 2.0 | ORYSAT preemergence herbicidal rating (ORYSAT (Rice, Tebonnet) [3]; rate 0.5000 kg/ha): 4.0 | Herbicidal rating CYPIR (CYPIR (Rice Flatsedge); [15]): 0.0 | Herbicidal rating CYPIR (CYPIR (Rice Flatsedge); [16]): 2.0 | Herbicidal rating CYPIR (CYPIR (Rice Flatsedge); [17]): 4.5 | Herbicidal rating CYPIR (CYPIR (Rice Flatsedge); [18]): 6.5 | Herbicidal rating CYPIR (CYPIR (Rice Flatsedge); [19]): 9.0 | AMBEL preemergence herbicidal rating (AMBEL (Ragweed, Common) [5]; rate 0.1250 kg/ha): 0.0 | AMBEL preemergence herbicidal rating (AMBEL (Ragweed, Common) [5]; rate 0.2500 kg/ha): 1.0 | AMBEL preemergence herbicidal rating (AMBEL (Ragweed, Common) [5]; rate 0.5000 kg/ha): 4.0 | CHEAL preemergence herbicidal rating ([6]; rate 0.1250 kg/ha): 0.0 | CHEAL preemergence herbicidal rating ([6]; rate 0.2500 kg/ha): 2.0 | CHEAL preemergence herbicidal rating ([6]; rate 0.5000 kg/ha): 9.0 | AMBEL herbicidal rating (AMBEL (Ragweed, Common) [7]; rate 0.0313 kg/ha): 0.0 | AMBEL herbicidal rating (AMBEL (Ragweed, Common) [7]; rate 0.0625 kg/ha): 0.0 | AMBEL herbicidal rating (AMBEL (Ragweed, Common) [7]; rate 0.1250 kg/ha): 2.0 | AMBEL herbicidal rating (AMBEL (Ragweed, Common) [7]; rate 0.2500 kg/ha): 6.0 | AMBEL herbicidal rating (AMBEL (Ragweed, Common) [7]; rate 0.5000 kg/ha): 6.0 | ABUTH herbicidal rating (ABUTH (Velvetleaf); rate 0.0313 kg/ha): 2.0 | ABUTH herbicidal rating (ABUTH (Velvetleaf); rate 0.0625 kg/ha): 4.0 | ABUTH herbicidal rating (ABUTH (Velvetleaf); rate 0.1250 kg/ha): 9.0 | ABUTH herbicidal rating (ABUTH (Velvetleaf); rate 0.2500 kg/ha): 9.0 | ABUTH herbicidal rating (ABUTH (Velvetleaf); rate 0.5000 kg/ha): 9.0 | GALAP herbicidal rating (GALAP (Galium); rate 0.0313 kg/ha): 0.0 | GALAP herbicidal rating (GALAP (Galium); rate 0.0625 kg/ha): 2.0 | GALAP herbicidal rating (GALAP (Galium); rate 0.1250 kg/ha): 2.0 | GALAP herbicidal rating (GALAP (Galium); rate 0.5000 kg/ha): 6.0 | SETVI herbicidal rating (SETVI (Foxtail, Green); rate 0.0313 kg/ha): 0.0 | SETVI herbicidal rating (SETVI (Foxtail, Green); rate 0.0625 kg/ha): 2.0 | SETVI herbicidal rating (SETVI (Foxtail, Green); rate 0.1250 kg/ha): 0.0 | SETVI herbicidal rating (SETVI (Foxtail, Green); rate 0.2500 kg/ha): 2.0 | SETVI herbicidal rating (SETVI (Foxtail, Green); rate 0.5000 kg/ha): 8.0 | TRZAWR herbicidal rating ([8]; rate 0.0313 kg/ha): 3.0 | TRZAWR herbicidal rating ([8]; rate 0.0625 kg/ha): 3.5 | TRZAWR herbicidal rating ([8]; rate 0.1250 kg/ha): 4.0 | TRZAWR herbicidal rating ([8]; rate 0.2500 kg/ha): 4.5 | TRZAWR herbicidal rating ([8]; rate 0.5000 kg/ha): 4.5 | CHEAL herbicidal rating ([9]; rate 0.0313 kg/ha): 2.0 | CHEAL herbicidal rating ([9]; rate 0.0625 kg/ha): 6.0 | CHEAL herbicidal rating ([9]; rate 0.1250 kg/ha): 8.0 | CHEAL herbicidal rating ([9]; rate 0.2500 kg/ha): 4.0 | CHEAL herbicidal rating ([9]; rate 0.5000 kg/ha): 4.0 | Herbicidal rating ECHORC [10, 15]: 1.0 | Herbicidal rating ECHORC [10, 16]: 2.0 | Herbicidal rating ECHORC [10, 17]: 3.5 | Herbicidal rating ECHORC [10, 18]: 4.0 | Herbicidal rating ECHORC [10, 19]: 5.0
